Assay results published in ChEMBL document CHEMBL1126235, “Benzothiadiazine dioxides: A new class of potent angiotensin-II (AT1) receptor antagonists” (Bioorg Med Chem Lett, 1992).

How the values were obtained:
[1] = molecular target: T1, Angiotensin II receptor (AT-1) type-1 (Rattus norvegicus, UniProt P29089+P25095); experiment: Binding against Angiotensin II receptor in a radioligand binding assay using [125I]-Sar1-Ile8 angiotensin-II as radioligand in rat adrenal cortical membranes; type: cell membranes
T1 sequence (P29089 whole entry): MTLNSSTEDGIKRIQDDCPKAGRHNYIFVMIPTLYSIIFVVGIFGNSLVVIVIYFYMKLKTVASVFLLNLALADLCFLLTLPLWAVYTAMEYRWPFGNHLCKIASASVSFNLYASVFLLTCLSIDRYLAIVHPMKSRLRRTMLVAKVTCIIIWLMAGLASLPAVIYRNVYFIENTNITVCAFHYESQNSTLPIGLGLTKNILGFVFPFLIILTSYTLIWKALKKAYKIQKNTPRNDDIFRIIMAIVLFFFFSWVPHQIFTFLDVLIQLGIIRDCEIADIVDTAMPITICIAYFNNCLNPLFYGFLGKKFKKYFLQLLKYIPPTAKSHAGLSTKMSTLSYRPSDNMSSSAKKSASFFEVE
T1 sequence (P25095 whole entry): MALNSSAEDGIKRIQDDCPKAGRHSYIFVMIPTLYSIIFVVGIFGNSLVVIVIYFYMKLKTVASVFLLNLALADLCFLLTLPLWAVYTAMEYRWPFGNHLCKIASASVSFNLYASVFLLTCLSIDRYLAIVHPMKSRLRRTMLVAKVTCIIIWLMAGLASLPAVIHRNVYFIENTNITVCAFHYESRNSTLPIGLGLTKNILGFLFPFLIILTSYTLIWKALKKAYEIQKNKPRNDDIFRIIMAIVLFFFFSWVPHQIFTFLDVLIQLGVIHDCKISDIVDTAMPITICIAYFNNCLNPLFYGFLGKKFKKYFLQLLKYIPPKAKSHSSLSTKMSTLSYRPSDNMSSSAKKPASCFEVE

Oryctolagus cuniculus = organism: Oryctolagus cuniculus; experiment: Compound was tested for functional antagonism of angiotensin-II induced contraction in isolated rabbit aorta

Ki [1] [nM] | SMILES | Kb (Oryctolagus cuniculus) [nM]
4900 | CCCSC1=Nc2ccccc2S(=O)(=O)N1Cc1ccc(-c2ccccc2C(=O)O)cc1 | 1200
57 | CCCSC1=Nc2ccccc2S(=O)(=O)N1Cc1ccc(-c2ccccc2-c2nn[nH]n2)cc1 | 640
0.6 | CCCSC1=NS(=O)(=O)c2cc(C)cnc2N1Cc1ccc(-c2ccccc2-c2nn[nH]n2)cc1 | 11
4.8 | CCCSC1=NS(=O)(=O)c2ccccc2N1Cc1ccc(-c2ccccc2-c2nn[nH]n2)cc1 | 93
550 | CCCCC1=NS(=O)(=O)c2ccccc2N1Cc1ccc(-c2ccccc2C(=O)O)cc1 | 130
230 | CCCCC1=Nc2ccccc2S(=O)(=O)N1Cc1ccc(-c2ccccc2C(=O)O)cc1 | 160
0.8 | CCSC1=NS(=O)(=O)c2cc(C)cnc2N1Cc1ccc(-c2ccccc2-c2nn[nH]n2)cc1 | 0.6
8.5 | CCCSC1=NS(=O)(=O)c2ccc(C(=O)O)cc2N1Cc1ccc(-c2ccccc2-c2nn[nH]n2)cc1 | 0.08
 | CCCCc1nc(Cl)c(CO)n1Cc1ccc(-c2ccccc2-c2nnn[nH]2)cc1 [LOSARTAN] | 2.6
180 | CCCSC1=NS(=O)(=O)c2ccccc2N1Cc1ccc(-c2ccccc2C(=O)O)cc1 | 20
